# Patent US10526341B2, “Thienopyrimidines and uses thereof” (Memorial Sloan-Kettering Cancer Center, priority 2014, dated 2020)
# Entries after “also recorded” stand apart in the source; their conditions may differ.
# Key:
# [1] = system: 040114 xenografts; test: GBM 040114 xenografts, bioluminescence imaging; format: in vivo, mice; settings: 40 mg/kg BID, after three weeks
# Protocol: (§1) DIPG and glioblastoma cell lines were used to generate xenografts in NSG immunocompromised mice for in vivo testing. All lines used for xenografting were transfected lentiviral vectors encoding firefly luciferase to enable bioluminescence imaging (BLI). For DIPG xenografts, 100,000 DIGIV or DIPGVI cells were stereotactically injected into the pons of cold anesthetized P6 pups by transcutaneous injection. For GBM xenografts, 500,000 cells (030613 and 040114) were injected stereotactically into the striatum of 6 week old mice anesthetized with ketamine/xylazine cocktail. […] BLI was performed every week during treatment.
# (§2) BLI was performed using the IVIS Lumina II system. D-Luciferin (10 uL of 15 mg/mL solution was instilled by retro-orbital injection in mice under […] anesthesia and 5 minute exposures were collected. Fold change over baseline pre-randomization imaging was calculated.
# [2] = system: fibroblasts (MRCS); test: MI-2-2 dose-response curve, cell survival (FIG. 19H); format: cell-based, human
# Protocol: (§3) FIG. 19 depicts the chemical screen of the transformed NPCs. FIG. 19A is a schematic representation of the screening strategy. A mixture of GFP-labeled normal NPCs and RFP-labeled P5K cells in a 1:3 ratio were plated into 96-well plates and each compound in the library was added in a 2-fold serial dilution for a total of 8 doses. […] Error bars indicate S.D. (n=4). […] Intracranial growth of Luciferase-labeled P5K cells was measured by quantitative in vivo bioluminescence imaging. Values indicate fold change of luminescence before and after the treatment. […] Cells were treated with MI-2 for 7 days and the number of viable cells was counted by trypan-blue staining (n=4). Error bars in panels C-D, E, F and G indicate mean±S.D. *, p<0.05; **, p<0.01. NS, Not Significant. FIG. 19H represents a dose-response curve of MI-2-2.
# (§4) The normal neural precursors are being analyzed for proof of maintained phenotype and differentiation ability, in further support of the safety profile of the drug used.
# [3] = system: DIPG patient-derived tumor line; test: as above; format: cell-based, human
# Protocol: as §3, §4
# [4] = system: normal neural precursors (NPC); test: as above; format: cell-based, human
# Protocol: as §3, §4
# [5] = system: SU-DIPGIV; test: TUNEL apoptosis assay; format: cell-based, human; settings: pre-treatment 7.6
# Protocol: (§5) Cell proliferation and apoptosis were assessed by immunofluorescence for Ki67 and TUNEL assays. After staining, Ki67 and TUNEL positive cells were manually counted to calculate a percentage of positive nuclei (see, e.g., FIG. 33). The pharmacokinetic profile of MI-2-2 was assessed by treating animals with 30 mg/kg and 60 mg/kg IP MI-2-2. Tail vein blood sampling and extraction of the pons was performed in animals at multiple time points and samples analyzed by LC-MS to generate a curve.
# [6] = system: NPC; test: TUNEL apoptosis assay; format: cell-based, human; settings: pre-treatment 3.8
# Protocol: as §5
# [7] = system: SU-DIPGVI; test: TUNEL apoptosis assay; format: cell-based, human; settings: pre-treatment 14.3
# Protocol: as §5
# [8] = system: Fibroblasts; test: TUNEL apoptosis assay; format: cell-based, human; settings: pre-treatment 0.4
# Protocol: as §5
# [9] = Pharmacokinetic profile of MI-2-2, blood and pons by LC-MS; format: in vivo, mice; settings: 30 mg/kg systemic MI-2-2
# Protocol: as §5
# DIPIV xenografts were generated and are monitored monthly for BLI signal prior to randomization into treatment groups.
# [10] = system: 042314; test: alamarBlue cell viability, 12 point dose response, seven days; format: cell-based, human; settings: 042314, seven days
# [11] = system: Glioblastoma 070909; test: Ki67 immunofluorescence proliferation assay; format: cell-based, human; settings: pre-treatment 18.2, *p < 0.05
# Protocol: as §5
# [12] = system: SU-DIPGIV; test: Ki67 immunofluorescence proliferation assay; format: cell-based, human; settings: pre-treatment 34.9, *p < 0.05
# Protocol: as §5
# [13] = system: Glioblastoma 040811; test: Ki67 immunofluorescence proliferation assay; format: cell-based, human; settings: pre-treatment 28.4
# Protocol: as §5
# [14] = system: NPC; test: Ki67 immunofluorescence proliferation assay; format: cell-based, human; settings: pre-treatment 10.6
# Protocol: as §5
# [15] = system: Glioblastoma 030613; test: Ki67 immunofluorescence proliferation assay; format: cell-based, human; settings: pre-treatment 30.4, *p < 0.05
# Protocol: as §5
# [16] = system: SU-DIPGVI; test: Ki67 immunofluorescence proliferation assay; format: cell-based, human; settings: pre-treatment 26.5, *p < 0.05
# Protocol: as §5
# [17] = system: Astrocytes; test: Ki67 immunofluorescence proliferation assay; format: cell-based, human; settings: pre-treatment 2.4
# Protocol: as §5
# [18] = system: Glioblastoma 040114; test: Ki67 immunofluorescence proliferation assay; format: cell-based, human; settings: pre-treatment 56.0, *p < 0.05
# Protocol: as §5
# [19] = system: Glioblastoma 050715; test: Ki67 immunofluorescence proliferation assay; format: cell-based, human; settings: pre-treatment 11.9
# Protocol: as §5
# [20] = system: Fibroblasts; test: Ki67 immunofluorescence proliferation assay; format: cell-based, human; settings: pre-treatment 29.6
# Protocol: as §5
# [21] = system: Glioblastoma 070909; test: alamarBlue cell viability, 12 point dose response, seven days; format: cell-based, human; settings: 070909, seven days
# Protocol: (§6) Sensitivity to MI-2-2 was assessed by a 12 point dose response curve calculated after seven days of drug exposure and alamarBlue cell viability assay. Multiple patient tumor-derived DIPG (DIPGIV, DIPGVI, MSK-1, Peds8) and Glioblastoma (070909, 030613, 050715, 042315, 040811, 040114) were tested, with fibroblasts (MRCS), hES derived NPCs and astrocytes serving as controls (see FIGS. 29-33). Dose-response curves for the treatment of NPC, DIPGIV, and DIPGVI cell lines with MI-2-2, Panobinostat, and EPZ6438 are shown in FIG. 29.
# [22] = system: hES derived NPCs; test: as above; format: cell-based, human; settings: sub-micromolar doses
# Protocol: as §6
# [23] = system: SU-DIPGIV; test: as above; format: cell-based, human
# Protocol: as §6
# [24] = system: Glioblastoma 040811; test: as above; format: cell-based, human; settings: 040811, seven days
# Protocol: as §6
# [25] = system: Glioblastoma 030613; test: as above; format: cell-based, human; settings: 030613, seven days
# Protocol: as §6
# [26] = system: SU-DIPGVI; test: as above; format: cell-based, human
# Protocol: as §6
# [27] = system: fibroblasts (MRCS); test: as above; format: cell-based, human; settings: sub-micromolar doses
# Protocol: as §6
# [28] = system: Astrocytes; test: as above; format: cell-based, human; settings: sub-micromolar doses
# Protocol: as §6
# [29] = system: Glioblastoma 040114; test: as above; format: cell-based, human; settings: 040114, seven days
# Protocol: as §6
# [30] = system: Glioblastoma 050715; test: as above; format: cell-based, human; settings: 050715, seven days
# Protocol: as §6
# [31] = system: DIPGVI xenografts; test: DIPGVI xenografts, bioluminescence imaging; format: in vivo, mice; settings: 60 mg/kg daily intraperitoneal, at 4 weeks
# Protocol: as §1, §2
structure (smiles),measurement,setting,value
CC1(C)CN=C(N2CCN(c3ncnc4sc(CC(F)(F)F)cc34)CC2)S1 [MI-2-2],BLI signal fold change in 040114 xenografts,[1],significant reduction in signal fold change
same,survival of fibroblasts (MRCS),[2],highly resistant; also recorded: minimal impact on the survival
same,IC50,[3],10 nM
same,survival of normal neural precursors (NPC),[4],highly resistant; also recorded: minimal impact on the survival
same,TUNEL % post-treatment,[5],"7.6, 21.4%"
same,TUNEL % post-treatment,[6],"3.8, 4.0%"
same,TUNEL % post-treatment,[7],"14.3, 17.9%"
same,TUNEL % post-treatment,[8],"0.4, 0.0%"
same,In vivo blood-brain barrier (BBB) penetration,[9],penetration was demonstrated
same,maintenance of therapeutic levels,[9],> 6 h
same,IC50,[10],26.1 nM
same,Ki67 % post-treatment,[11],"18.2, 10.8* %"
same,Ki67 % post-treatment,[12],"34.9, 16.0* %"
same,Ki67 % post-treatment,[13],"28.4, 22.5%"
same,Ki67 % post-treatment,[14],"10.6, 12.1%"
same,Ki67 % post-treatment,[15],"30.4, 16.2* %"
same,Ki67 % post-treatment,[16],"26.5, 14.4* %"
same,Ki67 % post-treatment,[17],"2.4, 4.3%"
same,Ki67 % post-treatment,[18],"56.0, 36.1* %"
same,Ki67 % post-treatment,[19],"11.9, 7.8%"
same,Ki67 % post-treatment,[20],"29.6, 27.5%"
same,IC50,[21],13.5 nM
same,depletion of NPCs,[22],not depleted at sub-micromolar doses
same,IC50,[23],93.4 nM
same,IC50,[24],113 nM
same,IC50,[25],9.51 nM
same,IC50,[26],121 nM
same,depletion of fibroblasts,[27],not depleted at sub-micromolar doses
same,depletion of astrocytes,[28],not depleted at sub-micromolar doses
same,IC50,[29],36.4 nM
same,IC50,[30],83.4 nM
same,BLI signal in DIPGVI xenografts,[31],no significant difference in BLI signal
